The text below walks through data of US11666633B2, “Long-acting peptide analogs” (The Board of Trustees of the Leland Stanford Junior …, priority 2011, dated 2023).

Series [1] is described as follows: Immunoreactive ADM retained in vivo after i.p. injection, by ELISA.
The test system of series [2] is SHR rats. As to the kind of experiment: Systolic blood pressure in conscious SHR rats (tail-cuff) after i.p. adrenomedullin peptides. The series is classed as in vivo, rat. The protocol: FIG. 5A-5C show examples of systolic pressure measurement of SHR rats after an injection of a long-acting adrenomedullin peptide (Palmitic acid-conjugated ADM, ADM-PA, 100 nmoles/kg BM. The hypotensive effect of this peptide lasted over five hours in vivo. By contrast, the hypotensive effect of unmodified ADM peptide normally lasts less than 1.5 hr.
(§1) Biological activity of adrenomedullin analog in vivo. The adrenomedullin peptides were dissolved in saline solution with 10-20% DMSO at 10 micromoles/liter, Before injection, aliquots of peptides were dissolved in PBS to a injection final volume of 200 μl. Blood pressure measurements were made in conscious SHR rats (9-16 weeks of age) pre-adapted to the measurement procedure. Indirect systolic pressure was determined by a programmable non-invasive blood pressure system using the tail-cuff method (Kent Scientific Corporation). Following attachment of the pressure transducer, rats were left undisturbed for 10 min before base-line measurements that spanned a 10-15 minute interval. Following base-line measurements, rats were injected intraperitoneally with varying doses of peptides, or saline with 10% DMSO. Blood pressure and heart rate were monitored for 20-40 min at 20-s intervals. Changes in blood pressure were calculated as the average of measurements performed within a given time interval.
(see Roh et al. Mol Endocrinol. 2005 November; 19(11):2824-38).

In series [3] the target is T1, adrenomedullin receptor 2 (CLR/RAMP3) (Homo sapiens, UniProt O60896+Q16602).
T1 construct: expressed in transfected cells; host or cells: 293T cells
T1 sequence (Q16602 23-461): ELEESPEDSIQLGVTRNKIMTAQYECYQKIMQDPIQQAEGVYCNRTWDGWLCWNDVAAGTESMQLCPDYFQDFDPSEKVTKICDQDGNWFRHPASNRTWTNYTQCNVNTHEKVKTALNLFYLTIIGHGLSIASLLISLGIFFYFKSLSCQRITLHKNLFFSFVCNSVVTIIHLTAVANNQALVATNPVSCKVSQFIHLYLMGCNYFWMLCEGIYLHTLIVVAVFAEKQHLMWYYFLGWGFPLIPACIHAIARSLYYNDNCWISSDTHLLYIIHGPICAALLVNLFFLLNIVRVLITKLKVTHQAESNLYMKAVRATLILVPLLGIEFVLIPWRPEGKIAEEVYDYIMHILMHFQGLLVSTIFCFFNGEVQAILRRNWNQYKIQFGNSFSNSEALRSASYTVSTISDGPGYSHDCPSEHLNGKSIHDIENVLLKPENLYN
T1 sequence (O60896 24-148): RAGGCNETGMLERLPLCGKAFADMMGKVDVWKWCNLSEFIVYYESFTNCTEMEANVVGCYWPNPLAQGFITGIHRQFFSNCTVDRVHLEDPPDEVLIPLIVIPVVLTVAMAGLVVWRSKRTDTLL
As to the kind of experiment: Stimulatory effect in 293T cells expressing recombinant adrenomedullin receptor 2. It counts as cell-based. The conditions noted are these: 293T cells expressing CLR/RAMP3. The text has this: (§2) Biological activity of adrenomedullin in vitro.

Series [4] has as its target T2, adrenomedullin receptor 1 (CLR/RAMP2) (Homo sapiens, UniProt O60895+Q16602).
T2 construct: expressed in transfected cells; host or cells: 293T cells
As to the kind of experiment: Stimulatory effect in 293T cells expressing recombinant adrenomedullin receptor 1. It counts as cell-based. The conditions noted are these: 293T cells expressing CLR/RAMP2.
From the text: as §2

For series [5], the system named is SHR rats. Kind of series: Systolic blood pressure in conscious SHR rats (tail-cuff) after i.p. intermedin peptides. It counts as in vivo, rat. The conditions noted are these: for duration of hypotensive effect in vivo: i.p.
From the text: FIG. 1A-1C are examples of blood pressure measurements in SHR rats after treatment with a long-acting intermedin peptide (Palmitic acid-modified IMD, IMD-PA), A. 30 nmoles/kg BW; B/C, 100 nmoles/kg BW.
FIG. 2A-2B are examples of blood pressure measurements in SHR rates after injection with a wild type intermedin peptide (IMD, 100 nmoles/kg BW). The hypotensive effects of the IMD-PA peptide lasted over five hours in vivo, whereas that of the unmodified IMD peptide lasted less than 1 hr.
as §1, with “The” for “Biological activity of adrenomedullin analog in vivo. The”, “intermedin” for “adrenomedullin”, “100 ul.” for “200 μl.”, “15-20” for “10-15”, “30-s” for “20-s”
The hypotensive effects of this peptide lasted over five hours in vivo, whereas that of the unmodified IMD peptide lasted less than 1 hr. The results from control animals injected with PBS is depicted in FIG. 3, and from the unmodified peptide in FIG. 2.

The test system of series [6] is SHR rats. The conditions noted are these: unmodified ADM peptide; stated as what it normally lasts, no figure; cited from earlier work.

*1 amine or outer side, *2 acyl side, *3 side chain or, on linkers, in order; H or OH if unused. Where no end group is shown, it is not given here. K(Palm) = CCCCCCCCCCCCCCCC(=O)NCCCC[C@H](N[*:1])C(=O)[*:2]

T2 sequence (Q16602 23-461): as the sequence (Q16602 23-461) above
T2 sequence (O60895 43-175): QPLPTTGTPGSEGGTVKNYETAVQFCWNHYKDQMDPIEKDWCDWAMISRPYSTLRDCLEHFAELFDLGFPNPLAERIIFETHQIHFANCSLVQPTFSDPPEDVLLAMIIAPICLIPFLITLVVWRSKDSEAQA

“K(mod)GCRFGTCTVQKLAHQIYQFTDKDKDNVAPRSKISPQGY [ADM-PA]”: the “level of immunoreactive peptide retained in vivo compared with ADM” value in series [1] (12 hr after i.p. injection) is “significantly higher”. In addition, the “half-life compared with ADM” value in series [1] (measurement of immunoreactive ADM using ELISA) is reported as “long half-life as compared to ADM”. In addition, the “change in systolic blood pressure over time” value with SHR rats [2] (SHR rats, 100 nmoles/kg body weight) is “significant and long lasting drop”. The “duration of hypotensive effect in vivo” value in the series with SHR rats [2] (SHR rats, ADM-PA 100 nmoles/kg) was “over five”. In addition, the “effective life in vivo compared with wild type ADM” value with SHR rats [2] (in vivo) is “significantly longer effective life”. Moreover, the “stimulatory effect in vitro compared with wild type ADM” value in series [3] and in series [4] was “lower than that of the wild type ADM” throughout.

As for “IMD: wild type, unmodified intermedin peptide (VGCVLGTCQVQNLSHRLWQLMGPAGRQDSAPVDPSSPHSY; ends and bridges not checked; cysteine pairing not given here) [reference compound]”, the “duration of hypotensive effect in vivo” value in the series with SHR rats [5] (unmodified IMD 100 nmoles/kg BW) is recorded as “less than 1 hr”.

Consider “K(mod)GCVLGTCQVQNLSHRLWQLMGPAGRQDSAPVDPSSPHSY ({K(Palm)}-GCVLGTCQVQNLSHRLWQLMGPAGRQDSAPVDPSSPHSY; ends and bridges not checked) [IMD-PA, long-acting intermedin peptide, palmitic acid-modified via an incorporated Lys(PAL) residue]”, for which, in the series with SHR rats [5] (i.p. injection), the “change in systolic blood pressure over time” value is “significant and long lasting drop”. In addition, the “duration of hypotensive effect in vivo” value in the series with SHR rats [5] (IMD-PA 30 or 100 nmoles/kg BW) is “over five”.

As for “ADM: wild type, unmodified adrenomedullin peptide (YRQSMNNFQGLRSFGCRFGTCTVQKLAHQIYQFTDKDKDNVAPRSKISPQGY; ends and bridges not checked; cysteine pairing not given here)”, the “duration of hypotensive effect (normally)” value in the series on SHR rats [6] is recorded as “less than 1.5 hr”.
